Reference: ChEMBL document CHEMBL1201862, “PubChem BioAssay data set” (2004)
Activity calls are given as the source filed them. Rule as the data show it, for most assays here: actives have a measured EC50 and inactives only a lower limit.

What was measured:
[1] = fluconazole-exposed Candida albicans growth modulators – fluorescence, retest, confirmation (AID 2467); type: functional, cell-based
[2] = NIH-3T3 fibroblast cytotoxicity, dose response, cytotoxicity control, cell-based, fluorescence, Alamar Blue, secondary assay (AID 2327); type: functional;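 also: NIH-3T3 mouse fibroblasts cultured with fluconazole at 8 µg/mL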
[3] = target: T1, Fatty acid synthase (Homo sapiens, UniProt P49327); experiment: inhibition of human FAS-TE enzyme activity – biochemical, kinetic fluorescence intensity, dose response (AID 624326); type: functional;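 also: rate of fluorescence rise from hydrolysis of a fluorogenic O-methyl fluorescein ester substrate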
[4] = target: T2, Carboxy-terminal domain RNA polymerase II polypeptide A small phosphatase 1 (Homo sapiens, UniProt Q9GZU7); experiment: CTDSP1 inhibitors, concentration-response, biochemical, absorbance readout, ultra-high-throughput screen actives (AID 540297); type: functional
T2 sequence (Q9GZU7 whole entry): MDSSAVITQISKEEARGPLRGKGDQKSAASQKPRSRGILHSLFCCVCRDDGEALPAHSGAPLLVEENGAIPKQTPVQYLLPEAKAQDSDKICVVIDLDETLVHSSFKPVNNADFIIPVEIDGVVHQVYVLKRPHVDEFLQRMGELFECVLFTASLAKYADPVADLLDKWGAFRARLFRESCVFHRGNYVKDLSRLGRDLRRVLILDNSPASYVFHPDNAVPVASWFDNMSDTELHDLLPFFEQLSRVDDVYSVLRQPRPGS

[5] = target: T1, Fatty acid synthase; experiment: inhibition of human FAS-TE enzyme activity – biochemical, endpoint fluorescence intensity, uHTS hits, dose response (AID 624327); type: functional;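 also: fluorescence from hydrolysis of an O-methyl fluorescein acyl ester substrate by the enzyme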
[6] = target: T3, Leucine aminopeptidase (Plasmodium falciparum 3D7, UniProt Q8IL11); experiment: P. falciparum M17LAP inhibitors, primary screen, biochemical, fluorogenic H-Leu-NHMec substrate, 1536-well (AID 1619); type: functional
T3 sequence (Q8IL11 whole entry): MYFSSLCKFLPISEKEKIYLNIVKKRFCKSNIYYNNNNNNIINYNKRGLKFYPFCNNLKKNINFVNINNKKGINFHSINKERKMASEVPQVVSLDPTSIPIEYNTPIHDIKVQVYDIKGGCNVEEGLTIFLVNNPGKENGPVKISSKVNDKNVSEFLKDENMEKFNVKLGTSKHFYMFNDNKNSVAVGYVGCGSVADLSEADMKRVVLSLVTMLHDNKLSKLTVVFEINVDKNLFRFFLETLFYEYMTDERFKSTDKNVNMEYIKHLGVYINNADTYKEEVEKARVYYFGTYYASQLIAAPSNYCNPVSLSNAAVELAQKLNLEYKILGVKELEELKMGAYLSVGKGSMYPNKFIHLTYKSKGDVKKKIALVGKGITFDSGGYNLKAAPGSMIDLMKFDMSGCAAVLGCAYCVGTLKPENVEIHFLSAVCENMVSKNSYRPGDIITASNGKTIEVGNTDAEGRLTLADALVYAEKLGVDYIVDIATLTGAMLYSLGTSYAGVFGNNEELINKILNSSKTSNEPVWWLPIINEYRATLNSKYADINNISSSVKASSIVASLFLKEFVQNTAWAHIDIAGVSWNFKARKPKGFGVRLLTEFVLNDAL

[7] = test system: BJ; experiment: BJ-TERT-LT-ST fibroblast viability loss – cell-based, RAS-independent, luminescence, dose response (AID 1935); type: functional; settings: Homo sapiens;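 also: BJ fibroblasts immortalized with TERT plus LT and ST oncogenes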
[8] = test system: BJ; experiment: BJ-TERT fibroblast viability loss – cell-based, RAS-independent, luminescence, dose response (AID 1933); type: functional; settings: Homo sapiens
[9] = DRD fibroblast viability loss – cell-based, non-viral oncogenic, luminescence, dose response (AID 1934); type: functional; settings: Homo sapiens
[10] = test system: BJ; experiment: cells; type: functional, cell-based; settings: Homo sapiens
[11] = target: T4, Streptokinase A (Streptococcus pyogenes serotype M1, UniProt P10520); experiment: viability-normalized secreted streptokinase activity reduction – plasminogen activation absorbance, OD405, dose response (AID 1914); type: functional, Streptococcus pyogenes M1 GAS;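 also: secreted streptokinase activity via plasminogen activation per viability signal from cell pellet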
T4 sequence (P10520 whole entry): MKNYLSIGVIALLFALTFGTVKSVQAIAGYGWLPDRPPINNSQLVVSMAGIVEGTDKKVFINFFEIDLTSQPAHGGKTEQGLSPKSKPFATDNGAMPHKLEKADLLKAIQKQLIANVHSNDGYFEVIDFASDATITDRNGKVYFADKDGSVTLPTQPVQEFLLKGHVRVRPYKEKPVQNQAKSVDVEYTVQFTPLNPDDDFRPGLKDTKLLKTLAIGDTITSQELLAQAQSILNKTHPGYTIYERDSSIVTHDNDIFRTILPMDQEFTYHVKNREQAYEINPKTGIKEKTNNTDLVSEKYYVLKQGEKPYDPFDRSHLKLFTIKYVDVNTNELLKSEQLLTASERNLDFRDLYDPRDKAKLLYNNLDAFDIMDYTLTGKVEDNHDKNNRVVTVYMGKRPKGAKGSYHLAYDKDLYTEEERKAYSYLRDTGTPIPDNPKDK

[12] = test system: Streptococcus; experiment: GAS UMAA2166 growth inhibition – luminescence, BacTiterGlo, counter-screen for streptokinase expression inhibitor project, dose response (AID 1915); type: functional, organism-based;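 also: potency for reduction of bacterial viability or growth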
[13] = test system: Streptococcus sp. 'group A'; experiment: Streptococcus pyogenes SK(-)GAS viability under kanamycin – luminescence, BacTiterGlo, confirmation, counter-screen for streptokinase expression inhibitor project, dose response (AID 1900); type: functional, organism-based
[14] = microbe, parasite or virus in culture; type: functional; settings: Mycobacterium tuberculosis
[15] = target: Large T antigen (Simian virus 40, UniProt P03070); type: functional, Betapolyomavirus macacae;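 also: Confirmatory-stage PubChem screen for compounds that inhibit SV40 T antigen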
[16] = target: T5, Zinc finger protein mex-5 (Caenorhabditis elegans, UniProt Q9XUB2); experiment: potency of MEX-5 RNA-binding blockers – biochemical, C. elegans, fluorescence polarization, dose response (AID 1960)
T5 sequence (Q9XUB2 whole entry): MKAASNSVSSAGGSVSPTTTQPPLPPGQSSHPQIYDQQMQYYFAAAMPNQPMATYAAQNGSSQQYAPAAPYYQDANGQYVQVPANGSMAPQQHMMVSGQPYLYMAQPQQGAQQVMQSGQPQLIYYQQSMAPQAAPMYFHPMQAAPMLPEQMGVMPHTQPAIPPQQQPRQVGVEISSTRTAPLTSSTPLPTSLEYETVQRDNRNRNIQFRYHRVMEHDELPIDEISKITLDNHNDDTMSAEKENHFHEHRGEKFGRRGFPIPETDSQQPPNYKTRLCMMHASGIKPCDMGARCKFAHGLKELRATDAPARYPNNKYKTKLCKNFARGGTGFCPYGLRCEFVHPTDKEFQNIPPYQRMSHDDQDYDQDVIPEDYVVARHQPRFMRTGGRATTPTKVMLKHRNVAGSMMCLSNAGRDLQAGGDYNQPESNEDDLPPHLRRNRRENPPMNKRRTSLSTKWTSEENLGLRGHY

[17] = target: T6, RNA-binding protein pos-1 (Caenorhabditis elegans, UniProt G5EF15); experiment: disruptors of C. elegans POS-1 RNA interaction – biochemical, fluorescence polarization, dose response (AID 1964);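 also: purified POS-1 fused to maltose binding protein made in E. coli; potency of compounds blocking POS-1 binding to fluorescent RNA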
T6 sequence (G5EF15 whole entry): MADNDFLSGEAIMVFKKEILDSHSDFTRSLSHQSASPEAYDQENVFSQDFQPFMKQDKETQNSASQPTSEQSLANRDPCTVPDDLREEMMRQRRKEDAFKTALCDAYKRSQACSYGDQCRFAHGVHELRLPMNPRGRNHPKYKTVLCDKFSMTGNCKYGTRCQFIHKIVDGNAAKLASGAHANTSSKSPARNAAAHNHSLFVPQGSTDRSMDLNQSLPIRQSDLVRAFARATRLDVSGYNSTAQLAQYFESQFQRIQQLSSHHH

[18] = Dd2 parasite growth inhibition in erythrocytes – SYBR Green, dry powder samples, set 9, dose response (AID 1159568); type: functional, cell-based
[19] = Luminescence Cell-Based Dose Confirmation HTS to Identify Activators of 5'UTR Stem-Loop Driven Alpha-Synuclein mRNA Translation in H4 Neuroglioblastoma Cells. [Related pubchem assays: 1829 (Project Summary), 1814 (Primary HTS)]; type: functional
[20] = test system: H4; experiment: Luminescence Cell-Based Dose Response HTS to Identify Activators of 5'UTR Stem-Loop Driven Prion Protein mRNA Translation in H4 Neuroglioblastoma Cells. [Related pubchem assays: 1829 (Project Summary), 1814 (Primary HTS)]; type: functional; settings: Homo sapiens
[21] = Luminescence Cell-Based Dose Response HTS to Identify Activators of Luciferase Translation or Activity in H4 […] Cells. [Related pubchem assays: 1829 (Project Summary), 1814 (Primary HTS)]; type: functional
[22] = target: FAD-linked sulfhydryl oxidase ALR (Homo sapiens, UniProt P55789); experiment: ALR-catalysed DTT oxidation blockers – biochemical, H2O2 detection, luminescence, cherry-pick, dose response (AID 493248)
[23] = test system: INS1; experiment: INS-1E survival protection against cytokine death – cell-based, luminescence, retest, dose response (AID 449756); type: functional; settings: Rattus norvegicus;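 also: cell death triggered by IL-1 beta plus TNF-alpha plus IFN-gamma mixture; protective hits raise ATP signal compared with cytokine alone wells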
[24] = target: Luciferin 4-monooxygenase (Photinus pyralis, UniProt P08659); experiment: inhibition of purified Photinus pyralis luciferase – biochemical, luminescence, dose response (AID 1891)
[25] = Luminescence Cell-Based Dose Confirmation HTS to Identify Inhibitors of Platelet Dense Granule Release. [Related pubchem assays: 1663 (Primary HTS), 1678 (Summary of Project)]; type: functional

T1 sequence (P49327 whole entry, the tested form may be a part): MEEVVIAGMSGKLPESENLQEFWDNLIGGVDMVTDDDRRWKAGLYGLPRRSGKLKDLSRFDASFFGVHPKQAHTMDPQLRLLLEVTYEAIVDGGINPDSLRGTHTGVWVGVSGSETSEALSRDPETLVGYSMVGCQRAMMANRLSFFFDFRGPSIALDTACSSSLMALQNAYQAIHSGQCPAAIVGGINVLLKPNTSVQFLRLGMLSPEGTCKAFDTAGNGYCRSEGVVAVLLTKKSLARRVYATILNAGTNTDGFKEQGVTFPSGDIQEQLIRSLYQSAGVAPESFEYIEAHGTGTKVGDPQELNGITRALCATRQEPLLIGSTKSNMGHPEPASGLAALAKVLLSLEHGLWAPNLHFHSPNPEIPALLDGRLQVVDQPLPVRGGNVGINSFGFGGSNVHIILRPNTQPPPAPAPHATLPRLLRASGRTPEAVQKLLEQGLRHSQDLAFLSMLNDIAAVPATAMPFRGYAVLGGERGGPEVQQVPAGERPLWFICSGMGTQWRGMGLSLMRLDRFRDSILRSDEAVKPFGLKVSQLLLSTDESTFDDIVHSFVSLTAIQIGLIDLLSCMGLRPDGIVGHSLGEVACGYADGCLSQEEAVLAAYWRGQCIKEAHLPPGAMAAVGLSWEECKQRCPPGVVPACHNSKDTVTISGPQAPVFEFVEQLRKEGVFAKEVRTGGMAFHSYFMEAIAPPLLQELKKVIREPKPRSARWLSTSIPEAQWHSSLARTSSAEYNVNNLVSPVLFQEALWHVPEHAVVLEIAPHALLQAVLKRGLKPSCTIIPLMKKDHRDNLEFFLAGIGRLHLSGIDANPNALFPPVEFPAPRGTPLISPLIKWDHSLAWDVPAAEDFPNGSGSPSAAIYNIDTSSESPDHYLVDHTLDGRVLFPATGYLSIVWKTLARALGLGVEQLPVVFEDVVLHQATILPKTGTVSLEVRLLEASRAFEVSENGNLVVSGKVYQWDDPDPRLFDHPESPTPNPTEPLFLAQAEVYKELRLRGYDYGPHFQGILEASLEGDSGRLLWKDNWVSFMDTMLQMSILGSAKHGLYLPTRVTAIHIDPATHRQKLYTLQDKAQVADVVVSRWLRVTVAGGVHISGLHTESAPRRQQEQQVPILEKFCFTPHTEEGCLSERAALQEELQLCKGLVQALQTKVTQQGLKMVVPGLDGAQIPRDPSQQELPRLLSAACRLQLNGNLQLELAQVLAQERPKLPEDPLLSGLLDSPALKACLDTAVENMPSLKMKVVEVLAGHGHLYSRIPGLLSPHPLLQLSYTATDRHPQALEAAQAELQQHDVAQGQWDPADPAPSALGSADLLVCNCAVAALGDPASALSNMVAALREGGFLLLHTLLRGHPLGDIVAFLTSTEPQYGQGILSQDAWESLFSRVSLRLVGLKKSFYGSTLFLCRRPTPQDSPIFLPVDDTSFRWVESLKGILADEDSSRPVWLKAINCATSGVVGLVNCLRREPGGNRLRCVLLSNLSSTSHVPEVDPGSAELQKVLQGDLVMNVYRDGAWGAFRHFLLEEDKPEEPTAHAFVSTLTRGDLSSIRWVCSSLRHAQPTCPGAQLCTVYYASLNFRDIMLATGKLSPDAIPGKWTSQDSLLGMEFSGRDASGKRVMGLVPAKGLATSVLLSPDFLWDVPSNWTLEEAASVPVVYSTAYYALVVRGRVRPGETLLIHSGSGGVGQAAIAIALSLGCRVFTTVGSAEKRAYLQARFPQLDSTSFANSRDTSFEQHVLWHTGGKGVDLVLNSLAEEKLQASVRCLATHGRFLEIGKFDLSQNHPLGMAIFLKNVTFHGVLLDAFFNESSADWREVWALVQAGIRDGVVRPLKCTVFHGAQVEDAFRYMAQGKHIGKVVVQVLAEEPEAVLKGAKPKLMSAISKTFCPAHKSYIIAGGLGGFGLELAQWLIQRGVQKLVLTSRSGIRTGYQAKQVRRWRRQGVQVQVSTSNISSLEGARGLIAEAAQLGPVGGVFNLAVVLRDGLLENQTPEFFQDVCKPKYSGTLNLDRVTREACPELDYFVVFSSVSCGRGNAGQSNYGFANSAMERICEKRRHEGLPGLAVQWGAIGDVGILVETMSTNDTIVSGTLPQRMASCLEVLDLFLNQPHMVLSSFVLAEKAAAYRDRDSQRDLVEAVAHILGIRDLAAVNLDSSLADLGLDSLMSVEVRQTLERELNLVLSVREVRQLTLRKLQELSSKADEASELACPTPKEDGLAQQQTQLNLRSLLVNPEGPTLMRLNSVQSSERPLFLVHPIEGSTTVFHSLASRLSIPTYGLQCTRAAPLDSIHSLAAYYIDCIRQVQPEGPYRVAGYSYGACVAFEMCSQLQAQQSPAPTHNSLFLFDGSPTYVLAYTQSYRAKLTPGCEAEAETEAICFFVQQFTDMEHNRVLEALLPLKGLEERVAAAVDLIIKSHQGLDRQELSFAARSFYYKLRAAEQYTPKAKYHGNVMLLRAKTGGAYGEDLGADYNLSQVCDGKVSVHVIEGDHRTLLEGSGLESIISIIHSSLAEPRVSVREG
Chain of FAD-linked sulfhydryl oxidase ALR (P55789 whole entry): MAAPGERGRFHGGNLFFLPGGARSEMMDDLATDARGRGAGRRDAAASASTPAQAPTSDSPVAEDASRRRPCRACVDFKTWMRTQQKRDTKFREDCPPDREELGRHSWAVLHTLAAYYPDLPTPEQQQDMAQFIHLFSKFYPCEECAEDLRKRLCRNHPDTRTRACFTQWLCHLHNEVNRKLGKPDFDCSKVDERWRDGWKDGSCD
Chain of Luciferin 4-monooxygenase (P08659 whole entry): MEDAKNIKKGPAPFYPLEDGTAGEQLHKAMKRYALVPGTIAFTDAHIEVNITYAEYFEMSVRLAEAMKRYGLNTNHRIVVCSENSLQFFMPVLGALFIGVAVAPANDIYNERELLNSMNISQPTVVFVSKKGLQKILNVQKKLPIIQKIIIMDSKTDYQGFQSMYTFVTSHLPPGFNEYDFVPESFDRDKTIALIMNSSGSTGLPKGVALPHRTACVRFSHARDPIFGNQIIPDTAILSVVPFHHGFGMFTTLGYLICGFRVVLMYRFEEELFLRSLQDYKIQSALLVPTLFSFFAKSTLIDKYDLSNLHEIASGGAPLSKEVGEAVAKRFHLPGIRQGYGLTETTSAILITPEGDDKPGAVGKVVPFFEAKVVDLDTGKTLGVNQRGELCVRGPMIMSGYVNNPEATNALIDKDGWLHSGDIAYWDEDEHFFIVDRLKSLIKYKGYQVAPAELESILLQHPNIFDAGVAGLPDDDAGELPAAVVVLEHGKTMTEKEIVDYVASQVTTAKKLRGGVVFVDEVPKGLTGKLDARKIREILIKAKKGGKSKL
Chain of Large T antigen (P03070 whole entry): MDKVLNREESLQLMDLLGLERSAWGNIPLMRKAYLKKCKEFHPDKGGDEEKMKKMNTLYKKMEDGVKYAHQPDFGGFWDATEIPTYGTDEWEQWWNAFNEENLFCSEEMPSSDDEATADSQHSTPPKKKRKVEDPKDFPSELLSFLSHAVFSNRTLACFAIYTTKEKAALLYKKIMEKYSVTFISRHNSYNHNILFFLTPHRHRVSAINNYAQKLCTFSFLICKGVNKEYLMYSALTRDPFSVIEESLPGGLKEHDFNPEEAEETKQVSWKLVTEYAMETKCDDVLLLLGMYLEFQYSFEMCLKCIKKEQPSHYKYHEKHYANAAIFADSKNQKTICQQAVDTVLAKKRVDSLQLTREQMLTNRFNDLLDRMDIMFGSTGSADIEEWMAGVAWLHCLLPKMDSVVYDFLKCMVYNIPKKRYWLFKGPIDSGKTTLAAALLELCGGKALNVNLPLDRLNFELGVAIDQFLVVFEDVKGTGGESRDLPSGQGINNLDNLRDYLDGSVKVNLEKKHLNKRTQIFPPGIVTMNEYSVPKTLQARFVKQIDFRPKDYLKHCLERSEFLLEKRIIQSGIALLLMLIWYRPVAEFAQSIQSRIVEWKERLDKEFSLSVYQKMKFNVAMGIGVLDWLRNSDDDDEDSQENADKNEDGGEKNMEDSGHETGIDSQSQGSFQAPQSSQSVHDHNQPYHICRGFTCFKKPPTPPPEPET

For CN=C(S)N1N=C(c2ccccc2)CC1c1ccccc1Cl (stereo not given), the EC50 [1] was > 38 µM (not active) and the EC50 [2] was > 160 µM (inactive).
In the case of Cc1ccc(NC(=O)CN2C(=O)CSc3ccc(S(=O)(=O)N4CCCCC4)cc32)cc1, the IC50 [3] is reported as 9.65 µM (active), the IC50 [4] is reported as 4.3 µM (active) and the IC50 [5] is reported as 14.9 µM (active).
For O=C(CNc1ccccc1F)N/N=C/C1CC=CCC1 (stereo not given), the EC50 [1] was > 38 µM (not active) and the EC50 [2] was > 160 µM (inactive).
In the case of CCOC(=O)c1cccc(NC(=O)CSc2nc(N)cc(N)n2)c1, the IC50 [6] is reported as 13.8 µM (active).
For CCC(=O)c1ccc(OCC(=O)Nc2ccccc2N2CCCCC2)cc1, the EC50 [7] was > 150 µM (not active), the EC50 [8] was > 150 µM (not active) and the EC50 [9] was > 150 µM (not active). The EC50 [10] was 35.6 µM (active).
In the case of N=C(N)N/N=C1C=C/C(=N\NC(N)=S)C=C\1 [AMBAZONE], the EC50 [11] is reported as > 150 µM (not active), the EC50 [12] is reported as 0.35 µM (active) and the EC50 [13] is reported as < 0.06 µM (active). The CC50 [14] was > 40 µM (active), the IC50 [15] was 13.7 µM (active) and the EC50 [16] was 9.73 µM (active). For the same compound, the EC50 [17] was 76.5 µM (active).
In the case of COc1ccc2c3c([nH]c2c1)[C@H](CO)N(C(C)=O)CC31CCN(C(=O)Nc2ccc(F)cc2F)CC1, the AC50 [18] is reported as 0.548 µM (active).
In the case of COc1ccc(NC(=O)CSc2c(C)nn(-c3nnc(C)c(=O)[nH]3)c2C)cc1, the IC50 [6] is reported as 83.7 µM (active).
For CC(=O)Nc1cccc(Oc2nc(-c3ccccn3)nc3ccccc23)c1, the EC50 [19] was 92.7 µM (active), the EC50 [20] was 7.56 µM (active) and the EC50 [21] was 11.8 µM (active). For the same compound, the EC50 [16] was 5.2 µM (active) and the EC50 [17] was 79.3 µM (active).
With C[C@H](CO)N1C[C@H](C)[C@H](CN(C)S(=O)(=O)c2ccccc2)OCCCC[C@H](C)Oc2ccc(NC(=O)Nc3ccc4c(c3)OCO4)cc2C1=O the AC50 [18] was 8.9 µM (active).
For CCN(CC)c1ccc(NC(=O)Cn2cc3c(n2)CCC(C)C3)c(C)c1 (stereo not given), the IC50 [6] was 6.41 µM (active) and the AC50 [22] was 48.8 µM (active).
With CCc1cc2c(=O)oc(-c3ccccc3F)nc2s1 the IC50 [3] was 1.62 µM (active) and the IC50 [5] was 2.48 µM (active).
For O=C(Cc1ccccn1)N1CC2(C1)[C@H](c1ccccc1)[C@H](CO)N2C(=O)c1ccncc1, the AC50 [18] was 30 µM (active).
For C=CCN1C(=O)N/C(=C/c2ccc(N3CCOCC3)o2)C1=O, the EC50 [1] was 2.15 µM (active), the EC50 [2] was 20 µM (active) and the AC50 [23] was > 260 µM (inactive).
In the case of Cc1ccc(N2C(=O)c3ccccc3C2O)nc1 (stereo not given), the EC50 [7] is reported as > 75 µM (inconclusive), the EC50 [8] is reported as 8.32 µM (active) and the EC50 [9] is reported as 7.47 µM (inconclusive). For the same compound, the EC50 [24] was 6.56 µM (active) and the EC50 [25] was 1.74 µM (active).
